# Tests used:
# apyrase [1] = molecular target: T1, apyrase (Solanum tuberosum, UniProt P80595)
# Experimental: (§1) 1. Leuconostoc sp MD 110 was grown by streaking a bead onto de Man Rogosa Sharpe agar to revive bead for stock (place in 30° C. incubator overnight).
# 1.1 A loop was taken from this plate and transferred to 10 ml Tryptone Soya Broth and grown at 30° C. for exactly 40 hours.
# Cells were washed twice in ice-cold RO water in centrifuge (4500 rpm for 10 mins), resuspended in 10 ml cold Reverse Osmosis water and stored in the fridge.
# (§2) 1.3. Cells for the experiment were prepared using a 100× dilution of this stock with a sterile solution of glucose (10 g/l) and MgCl2 (5 mM) at room temperature. Cells were diluted into this solution at least 20 minutes prior to starting each experiment to allow adaptation to the new conditions.
# 1 ml of the above cell suspension was added to a cuvette.
# 2. The suspension was then treated with 1 ml of reconstituted apyrase 0.96 units per ml, and 10 μl of ATP (10^−7M) was added and left for 15 minutes at room temperature.
# 3. 2×100 μl aliquots of the treated suspension were added to clean cuvettes.
# 4. To these 2 cuvettes 20 μl of 100 μM pH 7.75 phosphate solution was added.
# 5. 100 μl of the extractant (a solution of long chain fatty acid ethoxylates) was added and a timer started.
# (§3) 6. After 5 minutes extraction time Cuvette 1 was read in a luminometer.
# (§4) 7. Cuvette 1 was removed from the luminometer and 10 μl of 10^−7M ATP was added to standardise.
# (§5) 8. The sample was returned to the luminometer and read again, then read 5 consecutive times in a row in order to determine the final kinetics of the reaction.
# (§6) 9. After a further five minutes the second water cuvette was read in a luminometer.
# (§7) 10. Steps 7-11 were repeated for cuvette 2.
# 11. For the control, steps 4 to 13 were repeated but using 20 μl of Reverse Osmosis water in place of 20 μl phosphate.
# apyrase [2] = molecular target: T1, apyrase; remark: listed apart in the source
# Experimental: as §1
# a. A loop was taken from this plate and transferred to 10 ml Tryptone Soya Broth and grown at 30° C. for exactly 40 hours.
# b. […] Cells were washed twice in ice-cold Reverse Osmosis water in centrifuge (4500 rpm for 10 mins), resuspended in 10 ml cold Reverse Osmosis water and stored in the fridge. c. Cells for the experiment were prepared using a 100× dilution of this stock with a sterile solution of glucose (10 g/l) and MgCl2 (5 mM) at room temperature. Cells were diluted into this solution at least 20 minutes prior to starting each experiment to allow adaptation to the new conditions.
# d. A luciferase/luciferin reagent formulated with a detergent-resistant luciferase (Promega, Ultraglo) (Liquid Lysate) enzyme was reconstituted in 17.5 ml phosphate buffer pH 7.75.
# (§8) 2. 1 ml of the above cell suspension was added to a cuvette.
# 3. The suspension was then treated with 1 ml of reconstituted apyrase 0.96 units per ml, and […] of ATP (10^−7M) was added and left for 15 minutes at room temperature.
# (§9) 4. Two 100 μl aliquots of the treated suspension was transferred to clean cuvettes.
# 5. 100 μl of the luciferase/luciferin reagent formulated with a detergent-resistant luciferase (Promega, Ultraglo)/phosphate luciferase was added to each of the cuvettes.
# 6. To the remaining 2 cuvettes 100 μl of a solution of long chain fatty acid ethoxylates (the extractant) was added and a timer started.
# 7. Cuvette 1 was read in a luminometer after 5 minutes extraction time.
# 8. Cuvette 1 was removed from the luminometer and 10 μl of 10^−7M ATP was added to standardise.
# 9. The sample was returned to the luminometer and read again, then read 5 consecutive times in a row in order to determine the final kinetics of the reaction.
# 10. After a further five minutes steps 9-11 were repeated for cuvette 2.
# 11. For the control steps 4 to 13 were repeated but using a luciferase/luciferin reagent formulated with a detergent-resistant luciferase (Promega, Ultraglo) reconstituted in 25 mM HEPES buffer pH 7.75.
# apyrase [3] = molecular target: T1, apyrase; remark: listed apart in the source
# Experimental: A loop was taken from this plate and transferred to 10 ml Tryptone Soya Broth and grown at 30° C. for exactly 40 hours.
# 1.3. […] Cells were washed twice in ice-cold Reverse Osmosis water in centrifuge (4500 rpm for 10 mins), resuspended in 10 ml cold Reverse Osmosis water and stored in the fridge.
# Cells for the experiment were prepared using a 100× dilution of this stock with a sterile solution of glucose (10 g/l) and MgCl2 (5 mM) at room temperature. Cells were diluted into this solution at least 20 minutes prior to starting each experiment to allow adaptation to the new conditions.
# as §8
# apyrase [4] = molecular target: T1, apyrase; remark: listed apart in the source
# Experimental: as §1
# 1.1. A loop was taken from this plate and transferred to 10 ml Tryptone Soya Broth and grown at 30° C. for exactly 40 hours.
# Cells were washed twice in ice-cold Reverse Osmosis water in centrifuge (4500 rpm for 10 mins), resuspended in 10 ml cold Reverse Osmosis water and stored in the fridge.
# as §2
# A special luciferase/luciferin reagent formulated with a detergent-resistant luciferase (Promega, Ultraglo) enzyme was prepared. This was reconstituted in 17.5 ml of 30 mM phosphate /10 g/l a solution of long chain fatty acid ethoxylates.
# as §8
# 3. The suspension was then treated with 1 ml of reconstituted apyrase 0.96 units per ml, and 10 μl of ATP (10^−7M) was added and left for 15 minutes at room temperature.
# as §9
# 5. To these two cuvettes 100 μl of the luciferase/luciferin reagent formulated with a detergent-resistant luciferase (Promega, Ultraglo) Ultraglo/phosphate/solution of long chain fatty acid ethoxylates was added.
# as §3, §4, §5, §6, §7
# 11. For the control, steps 4 to 13 were repeated but using a luciferase/luciferin reagent formulated with a detergent-resistant luciferase (Promega, Ultraglo) made by reconstituting in 25 mM HEPES buffer pH 7.75 with a solution of long chain fatty acid ethoxylates (10 g/l).
# T1 sequence (P80595 whole entry, species assumed): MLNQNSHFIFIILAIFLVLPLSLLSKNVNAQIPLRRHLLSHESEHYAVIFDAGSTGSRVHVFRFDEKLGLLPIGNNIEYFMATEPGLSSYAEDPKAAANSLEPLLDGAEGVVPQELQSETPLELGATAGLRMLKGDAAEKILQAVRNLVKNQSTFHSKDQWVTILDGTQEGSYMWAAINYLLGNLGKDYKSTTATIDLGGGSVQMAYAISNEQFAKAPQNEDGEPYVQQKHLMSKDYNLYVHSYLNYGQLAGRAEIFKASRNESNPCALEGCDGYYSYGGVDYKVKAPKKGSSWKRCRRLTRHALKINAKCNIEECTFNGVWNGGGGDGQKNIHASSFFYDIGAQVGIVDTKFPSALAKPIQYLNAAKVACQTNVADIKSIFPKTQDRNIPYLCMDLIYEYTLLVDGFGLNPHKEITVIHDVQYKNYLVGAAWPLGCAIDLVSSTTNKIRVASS
substance,measurement,setting,value
phosphate,"inhibition of apyrase, ATP broken down in 5 minutes (FIG. 4.2)",apyrase [1]; 20 μl of 100 μM pH 7.75 phosphate solution,does inhibit apyrase
same,RLU produced after 5 minutes extraction remaining 5 minutes later,apyrase [1]; 20 μl of 100 μM pH 7.75 phosphate solution added before extractant,100%
same,"level of ATP present in the assay, T-5 to T-10","apyrase [1]; 20 μl of 100 μM pH 7.75 phosphate solution, patent believes it an artifact of the calculation",increased
same,drop of RLU values (kinetics),"apyrase [1]; in 46 seconds, 20 μl of 100 μM pH 7.75 phosphate solution","around 1,400 RLU"
same,"drop of assay signal (kinetics, FIG. 2.3)","apyrase [2]; in 50 seconds after ATP standard, phosphate buffer pH 7.75",10%
same,RLU produced after 5 minutes extraction still remaining at T=10 minutes,apyrase [2]; luciferase reagent reconstituted in phosphate buffer pH 7.75,73.7%
same,amount of ATP at T=10 as percentage of that present at T=5,apyrase [2]; phosphate buffer pH 7.75,81.3%
same,amount of ATP at T=5,"apyrase [2]; phosphate buffer pH 7.75, T=5 minutes",0.035 picomoles
same,amount of ATP remaining at T=10,"apyrase [2]; phosphate buffer pH 7.75, T=10 minutes",0.029 picomoles
same,rise in RLU from T-5 to T-10,"apyrase [3]; 30 mM phosphate mixed with the extractant, after 15 min apyrase 0.96 units per ml, Leuconostoc sp MD 110 suspension",38%
same,"inhibition of apyrase (kinetics, FIG. 1.3)","apyrase [3]; 30 mM phosphate, ATP standard added, consecutive luminometer reads",inhibits the action of apyrase
same,amount of ATP per assay higher at T=10 than at T=5,apyrase [4]; 30 mM phosphate in luciferase/extractant reagent,42%
same,amount of ATP per assay at T=5,"apyrase [4]; 30 mM phosphate in luciferase/extractant reagent, T=5",0.0052 picomoles
same,amount of ATP per assay at T=10,"apyrase [4]; 30 mM phosphate in luciferase/extractant reagent, T=10",0.0074 picomoles
same,increase of RLU values (kinetics),"apyrase [4]; in 75 seconds, 30 mM phosphate in luciferase/extractant reagent",13%
same,RLU signal higher at T=10 than at T=5,apyrase [4]; luciferase reagent in 30 mM phosphate / 10 g/l long chain fatty acid ethoxylates,57%

# — patent publication US10196671B2, “Assay method for the detection of viable microbial cells in a sample” (3M INNOVATIVE PROPERTIES COMPANY, priority 2006, dated 2019)
